“Also recorded” adds a separate entry of the source.
Legend:
[1] = tested on: nicotinic acid-induced vasodilation; test: Nicotinic acid-induced vasodilation in mice (ear perfusion, laser Doppler); format: in vivo, mouse; details: male C57BL/6 mice, DP antagonist ~40 mpk i.p., nicotinic acid ~100 mpk s.c., FIGS. 2 and 3
Protocol: Blood flow in the mouse ear (a measure of vasodilation, a prominent component of flushing in humans) is measured after administration of nicotinic acid to mice that had been pretreated with vehicle (as a control) or a DP antagonist. Specifically, male C57BL/6 mice (˜25 g) were used in the study. Five mice were evaluated in each test group. Nembutal was diluted with water to a final concentration of 5 mg/ml and injected 0.3 ml/mouse intraperitoneally. DP antagonists were dissolved in 5% hydroxypropyl β-cyclodextrin at a final concentration of 5 mg/mi and the compounds were administered intraperitoneally at a volume of 0.2 mi/mouse (˜40 mpk). Nicotinic acid was dissolved in 5% hydroxypropyl β-cyclodextrin at a final concentration of 12.5 mg/mi. […]
Perfusion of mouse ear skin was monitored with a laser Doppler perfusion imager (PeriScan PIM II, Perimed, Sweden) every 30 seconds for 15 minutes starting 5 minutes prior to nicotinic acid administration. Percent changes in mean perfusion over the 10 minute period after vehicle or nicotinic acid administration were calculated and a graph of percent change in mean perfusion vs. time was generated for each animal. The area under the curve (AUC) of mean perfusion (% Δ×min) was then calculated from each graph and the results are expressed in mean AUC±SEM for each group.

[2] = tested on: prostaglandin D2-induced vasodilation; test: Prostaglandin D2-induced vasodilation in mice; format: in vivo, mouse; details: FIG. 1
Text: Compound D suppressed PGD-2 induced vasodilation in the mouse (FIG. 1). The DP antagonists tested suppressed nicotinic acid-induced vasodilation in the mouse; data for selected compounds is provided in FIGS. 2 and 3.

Compound: CC(O)c1cc(S(C)(=O)=O)cc2c3c(n(Cc4ccc(Cl)cc4)c12)[C@@H](CC(=O)O)CC3 (some centres unmarked) [Compound D]
- inhibition of nicotinic acid-induced vasodilation [1]: inhibits
- inhibition of prostaglandin D2-induced vasodilation [2]: inhibits; also recorded: suppressed

Reference: patent US20040229844A1, “Method of treating atherosclerosis, dyslipidemias and related conditions” (priority 2003, published 2004)
